According to patent US20240358862A1, “Synthesis Method and Application of a Near-infrared Probe GGa-ICG specific binding to PSCA” (Guangzhou Shiyun Biotechnology Co., Ltd, priority 2022, published 2024):

How the values were obtained:
PSCA [1] = target: T1, PSCA (Homo sapiens, UniProt O43653); assay: In vivo blocking of GGa-ICG by PSCA antibodies; design: endogenous in cells; species or system nude mice; conditions: 1 mg PSCA antibody pre-injected, GGa-ICG 12 hours later
T1 sequence (O43653 12-83): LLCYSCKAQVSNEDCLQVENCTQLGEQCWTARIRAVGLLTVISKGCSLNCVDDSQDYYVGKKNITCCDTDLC
Protocol: 1 mg of PSCA antibody was pre-injected into nude mice, followed by injection of GGa-ICG 12 hours later, and live imaging was performed to observe the phenomenon of GGa-ICG binding.

PSCA [2] = target: T1, PSCA; assay: Mass spectrometry analysis of the target protein of GGa-ICG; format: binding; design: Membrane proteins of PC-3 cells were extracted; endogenous in cells; host or cells: PC-3; conditions: PC-3 membrane proteins, 35 kDa band
Protocol: PC-3 cells were washed three times with cold PBS buffer and lysed at 4° C. for 30 minutes in 5 mL of low-salt buffer [50 mM Tris-HCl (pH=7.5) containing protease inhibitor (0.1 mM PMSF complex)]. After centrifugation, the pellets were washed 3 times with 5 mL of low-salt buffer and then solubilized in 1.5 mL of lysis buffer (PBS containing 5 mM MgCl2 and 1% Triton X-100) at 4° C. for 30 minutes. The resulting supernatants were separately incubated with beads, ssDNA-ICG, or GGa-ICG at 4° C. for 1 hour. Protein-ssDNA-ICG or protein-GGa-ICG complexes were then captured by incubating them with 2 mg (200 μL) of streptavidin beads at 4° C. for 45 minutes. After centrifugation, the captured proteins were heated and eluted in 30 μL of loading buffer and then analyzed by SDS-PAGE gel and Coomassie blue staining. The protein bands showing significant differences in aptamer purification among different groups were subjected to in situ digestion and analyzed by LC-MS/MS.
Based on the above results, total membrane proteins were extracted from PC-3 cells and incubated with biotinylated GGa-ICG or ssDNA-ICG separately. Then, the binding complex was separated using streptavidin-coated magnetic beads and analyzed by SDS-PAGE gel. A characteristic protein band with a relative molecular weight of 35 kDa was found in the GGa-ICG column, which was digested and analyzed by LC-MS/MS QSTAR.

## GGa-ICG: near-infrared probe: PSCA-binding nucleic acid aptamer GGa linked at 3′ to an ICG derivative dye (DNA TGCCACTACAGCTGGTTCGGTTTGGTGACTTCGTTCTTCGTTGTGGT; 3'-ICG dye, further chemistry not given here)
PSCA [1]
  blocking of tumor visualization by PSCA antibody: Completely Blocked
PSCA [2]
  target protein hit list by LC-MS/MS: PSCA ranking first
